From ChEMBL document CHEMBL4393664, “2,4-Disubstituted quinazolines targeting breast cancer cells via EGFR-PI3K” (Eur J Med Chem, 2019)

Experiments:
Type in all cases: functional, cell-based
[1] = system: MDA-MB-231; assay: Cytotoxicity against human MDA-MB-231 cells assessed as reduction in cell viability after 72 hrs by MTT assay; conditions: MDA-MB-231, 72 h
[2] = system: MGC-803; assay: Cytotoxicity against human MGC803 cells assessed as reduction in cell viability after 72 hrs by MTT assay; conditions: MGC-803, 72 h
[3] = system: MCF7; assay: Cytotoxicity against human MCF7 cells assessed as reduction in cell viability after 72 hrs by MTT assay; conditions: MCF7, 72 h
[4] = system: PC-3; assay: Cytotoxicity against human PC3 cells assessed as reduction in cell viability after 72 hrs by MTT assay; conditions: PC-3, 72 h
[5] = system: HGC-27; assay: Cytotoxicity against human HGC27 cells assessed as reduction in cell viability after 72 hrs by MTT assay; conditions: HGC-27, 72 h

| SMILES | IC50 [1] [µM] | IC50 [2] [µM] | IC50 [3] [µM] | IC50 [4] [µM] | IC50 [5] [µM] |
| --- | --- | --- | --- | --- | --- |
| FC(F)(F)c1ccc(CSc2nc(Nc3ccc(Cl)cc3)c3ccccc3n2)cc1 | 15.1 | 16.8 | 21.5 | 7.11 | 14.1 |
| COc1cc(Nc2nc(SCc3ccc(C(F)(F)F)cc3)nc3ccccc23)cc(OC)c1OC | > 50 | 8.24 | > 50 | 7.37 | 14 |
| CCOc1ccccc1Nc1nc(SCc2ccc(C(F)(F)F)cc2)nc2ccccc12 | > 50 | > 50 | > 50 | 26.2 | > 50 |
| COc1cc(Nc2nc(SCc3ccc(C(F)(F)F)cc3)nc3ccccc23)cc(OC)c1 | 16.1 | 8.58 | 6.99 | > 50 | > 50 |
| COc1ccc(Nc2nc(SCc3ccc(C(F)(F)F)cc3)nc3ccccc23)cc1 | 15.7 | 13.8 | 47.2 | 16.7 | 23.5 |
| FC(F)(F)c1ccc(CSc2nc(Nc3ccccc3C(F)(F)F)c3ccccc3n2)cc1 | > 50 | > 50 | > 50 | 34.8 | > 50 |
| CCCCCCCCNc1nc(SCc2ccc(C(F)(F)F)cc2)nc2ccccc12 | 22.3 | 12.6 | 26.1 | 10.5 | 13.4 |
| COc1ccc(Nc2nc(SCc3ccc(C(F)(F)F)cc3)nc3ccccc23)c(OC)c1 | > 50 | > 50 | > 50 | 32.5 | > 50 |
| COc1ccccc1Nc1nc(SCc2ccc(C(F)(F)F)cc2)nc2ccccc12 | > 50 | > 50 | > 50 | 14.1 | > 50 |
| Fc1ccc(Nc2nc(SCc3ccc(C(F)(F)F)cc3)nc3ccccc23)cc1 | 15 | 9.62 | 36.3 | 7.07 | 19.5 |
| O=[N+]([O-])c1ccc(Nc2nc(SCc3ccc(C(F)(F)F)cc3)nc3ccccc23)cc1 | 8.67 | 8.17 | 17.9 | 7.9 | 16.6 |
| FC(F)(F)c1ccc(CSc2nc(Nc3cccc(Cl)c3)c3ccccc3n2)cc1 | 18 | 14.6 | 25.1 | 13.4 | 19.9 |
| CCCCCCCCCCCCCCNc1nc(SCc2ccc(C(F)(F)F)cc2)nc2ccccc12 | > 50 | > 50 | > 50 | > 50 | > 50 |
| O=[N+]([O-])c1cccc(Nc2nc(SCc3ccc(C(F)(F)F)cc3)nc3ccccc23)c1 | 31.5 | > 50 | > 50 | 13.5 | > 50 |
| COc1ccc(Nc2nc(SCc3ccc(C(F)(F)F)cc3)nc3ccccc23)cc1OC | 18.9 | 16.3 | > 50 | 14.1 | 17.9 |
| CCOc1ccc(Nc2nc(SCc3ccc(C(F)(F)F)cc3)nc3ccccc23)cc1 | 23 | 37 | > 50 | 32 | 33 |
| Cc1ccccc1Nc1nc(SCc2ccc(C(F)(F)F)cc2)nc2ccccc12 | 27.1 | 24.4 | 37.5 | 36.9 | 27.5 |
| FC(F)(F)c1ccc(CSc2nc(Nc3ccccc3Cl)c3ccccc3n2)cc1 | > 50 | > 50 | > 50 | 20.4 | > 50 |
| Cc1ccc(Nc2nc(SCc3ccc(C(F)(F)F)cc3)nc3ccccc23)cc1 | > 50 | 36.1 | > 50 | 21.1 | 34.6 |
| FC(F)(F)c1ccc(CSc2nc(Nc3cccc(Br)c3)c3ccccc3n2)cc1 | 22.1 | 23.7 | 25.6 | 8.68 | 18.3 |
| FC(F)(F)c1ccc(CSc2nc(N3CCCCC3)c3ccccc3n2)cc1 | 28.4 | 18.6 | > 50 | 25.5 | > 50 |
| FC(F)(F)c1ccc(CSc2nc(Nc3cccc(C(F)(F)F)c3)c3ccccc3n2)cc1 | 11.1 | 15.1 | 15.3 | 12.9 | 11.7 |
| FC(F)(F)c1ccc(CSc2nc(Nc3ccccc3)c3ccccc3n2)cc1 | 18.4 | 22.2 | 44 | 20 | 26.4 |
| Fc1ccc(Nc2nc(SCc3ccc(C(F)(F)F)cc3)nc3ccccc23)cc1Cl | 14.5 | > 50 | 23 | 18.6 | 14.7 |
| CCCCCCNc1nc(SCc2ccc(C(F)(F)F)cc2)nc2ccccc12 | 20.2 | 13.1 | 24.3 | 19 | 23.9 |
| CCCCCCCCCCCCNc1nc(SCc2ccc(C(F)(F)F)cc2)nc2ccccc12 | > 50 | > 50 | > 50 | 26 | 38.7 |
